What was measured:
[1] = Hydrolysis kinetics in aqueous PBS 0.1 M, pH 6.8, 37 °C (intestinal conditions); type: physicochemical; conditions: for half-life at 5 μM: 0.1 M PBS buffer, 5 μM compound; for 10^2 * kII, pseudo first-order rate constant, disubstituted to monosubstituted / 10^2 * kIII, pseudo first-order rate constant, trisubstituted to disubstituted: value ± standard error of fit
Text: (§1) There are two possible isomeric disubstituted intermediates and, likewise, two monosubstituted intermediates. By HPLC-UV and HPLC-MS analyses in most cases we were able to detect and separate all of them. However, to simplify the kinetic analysis of the data we considered each pair of isomeric intermediates, resulting from the first and second hydrolysis steps, as a single species, i.e. the two disubstituted and the two monosubstituted intermediates were handled as species II and I, respectively (Fig. 3). Fitting of the experimental data was then performed considering consecutive pseudo first order reactions and using a set of equations analogous to those described by Kozerski et al.[55]
The stability of all new compounds was tested in aqueous media imitating gastric (0.1 N HCl, NormaFix) and intestinal (0.1 M PBS buffer, pH 6.8) conditions. A 5 μM solution of the compound was prepared from a 5 mM stock solution in DMSO, and incubated at 37 °C for 24 hours; samples withdrawn at different times were analysed by HPLC-UV. Hydrolysis products were identified by HPLC/ESI-MS analysis of selected samples. Non-linear curve fitting was performed using Origin 8.0 data analysis software, using the equations described in[55][61].

[2] = Stability (hydrolysis kinetics) in rat whole blood; type: in vitro ADME; conditions: 37 °C; for kIII, pseudo first-order rate constant, trisubstituted to disubstituted: value ± standard error of fit; for half-life at 5 μM: whole blood (heparinised), 5 μM compound
Text: as §1
Rats were anesthetised and blood was withdrawn from the jugular vein, and transferred into tubes containing heparin. Blood samples (1 mL) were spiked with 5 μM compound (dilution from a 5 mM stock solution in DMSO), and incubated at 37 °C for 4 hours (the maximum period allowed by blood stability). Aliquots were taken after 10 min, 30 min, 1 h, 2 h and 4 h and treated as described below (blood sample treatment and analysis). Cleared blood samples were finally subjected to HPLC-UV analysis.
(§2) Before starting the treatment, 4,4′-dihydroxybiphenyl was added as internal standard to a carefully measured blood volume (25 μM final concentration). 0.1 vol of 0.6 M TEA (pH 8.0) and 4 vol of MeOH were then added to the blood samples, which were then sonicated (2 min) and centrifuged (12,000 g, 7 min, 4 °C). The supernatant was finally collected and stored at −20 °C. Before analysis, MeOH was evaporated off at room temperature using a Univapo 150H (UniEquip) vacuum concentrator centrifuge, and up to 40 μL of ACN were added to precipitate residual proteins. After centrifugation (12,000 g, 5 min, 4 °C), cleared samples were directly subjected to HPLC-UV analysis. Metabolites and hydrolysis products were identified by comparison of chromatographic retention time with true samples or by HPLC/ESI-MS analysis.

[3] = Blood pharmacokinetics after oral (intragastric) administration to rats; type: in vivo; conditions: rat, oral 88 μmol/kg
Method: Derivatives 2–5 were then tested for their in vivo absorption and metabolism by performing pharmacokinetic studies after oral administration to rats. Each compound was administered as a single intragastric bolus, in an equimolar dose/kg body weight (88 μmol/kg). Blood samples were taken at different time points over a 24 h period, treated and analyzed as described in the Materials and Methods section. Each experiment was replicated at least 3 times.
as §2
Internal standard recovery from the treatment used to extract resveratrol-AA derivatives was 91.8 ± 10.7%. The recovery of 3, expressed as ratio to the recovery of internal standard, was 0.633 ± 0.088. […] Knowledge/assumption of these ratios allowed us to determine the unknown amount of analyte in a blood sample by measuring the recovery of internal standard.
Since sample treatment includes an evaporation/concentration step, LOD and LOQ were determined relatively to the analytical part of the method (HPLC/UV analysis).
Derivatives 2–5 were administered to overnight-fasted male Wistar rats from the facility of the Department of Biomedical Sciences, University of Padova, as a single intragastric dose (88 μmol/Kg, dissolved in 250 μl DMSO). Blood samples were obtained by the tail bleeding technique: before drug administration, rats were anesthetised with isoflurane and the tip of the tail was cut off; blood samples (80–100 μL each) were then taken from the tail tip at different time points after drug administration. Blood was collected in heparinised tubes, kept in ice and treated as described above within 10 min.

[4] = oral administration of an equimolar amount of resveratrol itself; cited from earlier work

Compound	half-life at 5 μM [1]	10^2 * kII, pseudo first-order rate constant, disubstituted to monosubstituted [1]	10^2 * kIII, pseudo first-order rate constant, trisubstituted to disubstituted [1]	kIII, pseudo first-order rate constant, trisubstituted to disubstituted [2]	half-life at 5 μM [2]	level of disubstituted hydrolysis products (II) in blood [3]	sulfated or glucuronidated species in the bloodstream [3]	concentration of prodrug in blood ([3]; about one hour after administration, remained around this level for several hours)	appearance in blood of resveratrol, products of partial hydrolysis (II and I) or any metabolites [3]	time of peak blood concentration of resveratrol [4]
CC(C)CC(NC(=O)Oc1ccc(/C=C/c2cc(OC(=O)NC(CC(C)C)C(=O)O)cc(OC(=O)NC(CC(C)C)C(=O)O)c2)cc1)C(=O)O (centres unmarked) [Derivative 2, (E)-2,2′-((((5-(4-(((1-carboxy-3-methylbutyl)carbamoyl)oxy)styryl)-1,3-phenylene)bis(oxy))bis(carbonyl))bis(azanediyl))bis(4-methylpentanoic acid)]	> 24 h	0.9 ± 0.2 h^−1	1.98 ± 0.03 h^−1	0.57 ± 0.06 h⁻¹	1 h					
CCC(C)C(NC(=O)Oc1ccc(/C=C/c2cc(OC(=O)NC(C(=O)O)C(C)CC)cc(OC(=O)NC(C(=O)O)C(C)CC)c2)cc1)C(=O)O (centres unmarked) [Derivative 3, (E)-2,2′-((((5-(4-(((1-carboxy-2-methylbutyl)carbamoyl)oxy)styryl)-1,3-phenylene)bis(oxy))bis(carbonyl))bis(azanediyl))bis(3-methylpentanoic acid)]	> 24 h	0.4 ± 0.4 h^−1	2.21 ± 0.02 h^−1	0.63 ± 0.04 h⁻¹	1 h	about as high as that of their precursor	neither sulfated nor glucuronidated species appeared in the bloodstream	higher than 0.5 μM		
CC(O)C(NC(=O)Oc1ccc(/C=C/c2cc(OC(=O)NC(C(=O)O)C(C)O)cc(OC(=O)NC(C(=O)O)C(C)O)c2)cc1)C(=O)O (centres unmarked) [Derivative 4, (E)-2,2′-((((5-(4-(((1-carboxy-2-hydroxypropyl)carbamoyl)oxy)styryl)-1,3-phenylene)bis(oxy))bis(carbonyl))bis(azanediyl))bis(3-hydroxybutanoic acid)]	15 h	1.4 ± 0.1 h^−1	5.30 ± 0.08 h^−1	3.9 ± 0.2 h⁻¹	0.17 h				did not result in the appearance in blood samples of detectable amounts	
O=C(NC(Cc1ccccc1)C(=O)O)Oc1ccc(/C=C/c2cc(OC(=O)NC(Cc3ccccc3)C(=O)O)cc(OC(=O)NC(Cc3ccccc3)C(=O)O)c2)cc1 (centres unmarked) [Derivative 5, (E)-2,2′-((((5-(4-(((1-carboxy-2-phenylethyl)carbamoyl)oxy)styryl)-1,3-phenylene)bis(oxy))bis(carbonyl))bis(azanediyl))bis(3-phenylpropanoic acid)]	17 h	1.36 ± 0.04 h^−1	4.25 ± 0.02 h^−1	1.86 ± 0.06 h⁻¹	0.3 h				did not result in the appearance in blood samples of detectable amounts	
Oc1ccc(/C=C/c2cc(O)cc(O)c2)cc1 [resveratrol, 3,5, 4′-trihydroxy-trans-stilbene]										about 10 minutes

Reference: paper PMC4604475 (Scientific Reports, 2015)
